In patent US5122448A, “Assay of anti-Epstein-Barr virus nuclear antigen antibodies with synthetic polypeptides” (Scripps Clinic and Research Foundation, priority 1990, dated 1992):
Residues, ends and D or L forms follow the SMILES beside them.

Columns and labels:
[1] = tested on: EBNA; assay: Immunoblot of WI-L2 whole cell extracts with rabbit antipeptide antisera, blocking by polypeptide; type: binding, Epstein-Barr virus; conditions: serum 1:10, 40 ug/ml polypeptide P62, one hour
Method: Exemplary receptor molecules containing antibody combining sites of this invention raised in rabbits to the polypeptides shown in Table 1 were studied using the immunoblotting procedures of Towbin, et. al., Proc. Natl. Acad. Sci., U.S.A., 76:4350-4354 (1979) and Billings, et. al., Proc. Natl. Acad. Sci., U.S.A., 80:7104-7108 (1983). Further details are provided in the Materials and Methods section (III).
Extracts of EBNA producing and non-producing (control) cells were prepared to determine if receptor molecules of this invention were useful for diagnosing EBNA expression. Cells from cultures described hereinabove were washed in phosphate-buffered saline (PBS; 150 mM NaCl, 10 mM sodium phosphate, pH 7.4) containing 0.2 mM phenylmethylsulfonyl fluoride, swollen for 5 minutes in reticulocyte standard buffer (RSB; 10 mM NaCl, 10 mM Tris-HCl, pH 7.4, 1.5 mM MgCl2, 0.2 mM phenylmethylsulfonyl fluoride), and lysed by sonication in 3-5 volumes of RBS adjusted to 0.2-0.35 molar (M) NaCl. After 30 minutes on ice, the sonicate was centrifuged at 10,000×g for 15 minutes to remove cellular debris.
Cell extracts obtained above were assayed for EBNA using human sera known to contain anti-EBNA antibodies or exemplary receptor molecules of this invention. The extracts were either concentrated by precipitation with 2 volumes of ethanol at -20 degrees C. for about 18 hours, and were then dissolved in sample buffer [SB; 10% glycerol, 2% 2-mercaptoethanol, 1% sodium dodecyl sulfate (SDS), 0.002% bromphenol blue, 40 mM Tris-HCl (pH 7.4)] or diluted 1:6 in sample buffer for SDS-polyacrylamide gel electrophoresis (SDS-PAGE). 7.5% Polyacrylamide gels were cast and run according to the procedure of Laemmli, Nature, […] (1970), applying 50 to 200 micrograms of total protein per lane. […]
Anti-peptide antibodies bound to EBNA protein were detected by reacting the blots with an indicating means. […]

[2] = tested on: rabbit anti-polypeptide antibody to polypeptide P62; assay: Competition ELISA with rabbit anti-polypeptide P62 antibody on solid phase P62; type: binding; conditions: antibody first incubated with competing polypeptide
Method: (§1) Anti-peptide antibody binding and inhibition studies were carried out by an enzyme-linked immunosorbent assay (ELISA) as described below.
(§2) Contact between the wells and antigen-containing solution was maintained for a predetermined time, typically 15 minutes, and at 20 degrees C., to form an antigen-coated solid phase. The solid and liquid phases were separated and the wells were washed three times with BBS.
(§3) Rabbit and human sera (body sample aliquots) were assayed for anti-polypeptide activity by adding 100 microliters of a serum diluted 1:20 in BBS per well to form a solid/liquid phase composition. Contact between the diluted sera and the antigen-coated solid phase was maintained for a predetermined time such as 1 hour, and at 20 degrees C., for an immunoreactant to form. The solid and liquid phases were separated, and the solid phase; i.e., antigen-coated, immunoreactant-containing wells, was then washed three times with BBS.

[3] = target: human anti-EBNA antibodies; assay: ELISA: inhibition of serum antibody binding to solid phase P62 by competing polypeptide in solution
Method: as §1, §2, §3

[4] = tested on: IgM and IgG antibodies to EBNA-1 and cellular proteins of Wi-L2 cells
Method: In an alternative procedure, the cellular protein-containing extracts were loaded onto one 13-cm-wide slot of a 7.5 percent acrylamide gel and electrophoresed. The contents of the electrophoresed gel were transferred to nitrocellulose as previously described [Billings et al., Proc. Natl. Acad. Sci. USA, 80:7104-7108 (1983); Rumpold et al., J. Immunol., 138:593-599 (1987); Rhodes et al., J. Exp. Med., 165:1026-1040 (1987)]. Sera were diluted 1:20 or 1:50 in a powdered milk (PM) buffer (3 percent powered milk in 0.05 M borate, 0.15 M NaCl, pH 8.3), and contacted with the strip for 1 hour at room temperature to immunoreact antibodies in the sera with the proteins.
128:593-599 (1987); Rhodes et al., in Herpesvirus, R. Rapp ed., Alan R. Liss, New York; p. […] 154:885-889 (1986); Geltosky et al., J. Clin. Lab Analysis, 1:153-162 (1987); and Rhodes et al., J. Exp. Med., 165:1026-1040 (1987)] and bands were detected by autoradiography as described before.
Synthetic peptide inhibitions were performed by diluting the sera 1:50 in PM and adding free peptide to a final concentration of 400 ug/ml to inhibit IgM antibody and 20 to 50 ug/ml to inhibit IgG antibody. This solution was maintained (incubated) overnight at 4 degrees C. and then used to blot as described above.

[5] = Circular dichroism spectroscopy; type: physicochemical; conditions: 1 mg/ml in phosphate buffered saline
Method: The conformational properties of the polypeptides were investigated to elucidate any secondary structure that might be necessary for polypeptide immunoreaction with human anti-EBNA antibodies. The polypeptides were dissolved at a concentration of 1 mg/ml in phosphate-buffered saline (PBS). Spectra were taken using 1 ml samples in a Cary 61 spectropolarimeter (Cary Instruments, Applied Physics Corp., Monrovia, Calif.) interfaced and automated with a Digital Equipment Corporation 11/02 computer (Digital Equipment Corporation, Maynard, Mass.).

## C[C@H](N)C(=O)NCC(=O)N[C@@H](C)C(=O)NCC(=O)NCC(=O)NCC(=O)N[C@@H](C)C(=O)NCC(=O)NCC(=O)N[C@@H](C)C(=O)NCC(=O)N[C@@H](C)C(=O)NCC(=O)NCC(=O)NCC(=O)N[C@@H](C)C(=O)NCC(=O)NCC(=O)N[C@@H](C)C(=O)NCC(=O)O [Polypeptide P62, H--Ala--Gly--Ala--Gly--Gly--Gly--Ala--Gly--Gly--Ala--Gly--Ala--Gly--Gly--Gly--Ala--Gly--Gly--Ala--Gly--OH] (H-AGAGGGAGGAGAGGGAGGAG-OH)
[1]
  Recognition of EBNA by anti-P62 serum after preincubation with polypeptide: inhibited
[2]
  Inhibition of binding of anti-polypeptide P62 to polypeptide P62 in the solid phase: 98%
[3]; serum N6
  Concentration of Competing Polypeptides Providing 50% Inhibition of Antibody Binding to Peptide P62: 0.6 micrograms per milliliter
[3]; serum TJ
  Concentration of Competing Polypeptides Providing 50% Inhibition of Antibody Binding to Peptide P62: 0.05 micrograms per milliliter
[3]; serum VM
  Concentration of Competing Polypeptides Providing 50% Inhibition of Antibody Binding to Peptide P62: 0.3 micrograms per milliliter
[4]; acute EBV-IM sera 1:50, 400 ug/ml peptide
  Inhibition of IgM antibody binding to protein bands: inhibited IgM antibody binding to several protein bands
[4]; convalescent and normal sera, 50 ug/ml peptide
  Inhibition of IgG binding to EBNA-1 band at 77 kD: inhibited by the peptide in all cases
[4]; patient four. 12 days after onset of CMV illness, 400 ug/ml peptide
  Inhibition of IgM reactivities with 82-77 kD and 58 to 62 kD bands: inhibited
[5]
  Conformation by circular dichroism spectrum: relatively stable secondary structure
